Reference: patent US6194423A, “Fused isoquinolines as dopamine receptor ligands” (priority 1999, dated 2001)
“Also recorded” adds a separate entry of the source.

Experiments:
[1] = molecular target: T1, rat striatal D1 receptors (Rattus norvegicus, UniProt P18901); experiment: D1 receptor binding ([3H]SCH23390) in rat striatal homogenates; details: for D1 binding nH (Hill slope): competition against 3H-SCH23390
T1 construct: Frozen rat striata were homogenized; from tissue; host or cells: rat striatum (adult male Sprague Dawley), washed membrane homogenate
T1 sequence (P18901 whole entry): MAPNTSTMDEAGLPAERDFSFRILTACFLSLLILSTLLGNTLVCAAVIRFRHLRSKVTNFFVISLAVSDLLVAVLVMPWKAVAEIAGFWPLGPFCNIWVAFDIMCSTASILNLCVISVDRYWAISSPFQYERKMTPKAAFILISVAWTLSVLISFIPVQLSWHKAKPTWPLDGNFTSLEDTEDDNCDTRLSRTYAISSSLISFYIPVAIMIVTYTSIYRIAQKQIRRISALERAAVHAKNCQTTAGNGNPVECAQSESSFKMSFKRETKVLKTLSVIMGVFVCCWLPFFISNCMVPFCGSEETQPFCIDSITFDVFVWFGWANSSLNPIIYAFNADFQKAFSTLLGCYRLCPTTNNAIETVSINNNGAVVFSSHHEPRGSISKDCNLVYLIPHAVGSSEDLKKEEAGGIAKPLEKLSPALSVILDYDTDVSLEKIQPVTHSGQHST
Protocol: Dopamine receptor binding assays.
Data analysis for radioreceptor assays. […] Data were normalized by expressing the average dpm at each competitor concentration as a percentage of total binding.
Competition curves were analyzed by non linear regression to determine estimates for the K0.5 and Hill slope (nH). Data represent the mean and standard error from three independent assays for each test compound.

D1 receptor = details: cited from earlier work
D2 receptors = D2 receptors (Rattus norvegicus, UniProt P61169)
Sequence of D2 receptors (P61169 whole entry): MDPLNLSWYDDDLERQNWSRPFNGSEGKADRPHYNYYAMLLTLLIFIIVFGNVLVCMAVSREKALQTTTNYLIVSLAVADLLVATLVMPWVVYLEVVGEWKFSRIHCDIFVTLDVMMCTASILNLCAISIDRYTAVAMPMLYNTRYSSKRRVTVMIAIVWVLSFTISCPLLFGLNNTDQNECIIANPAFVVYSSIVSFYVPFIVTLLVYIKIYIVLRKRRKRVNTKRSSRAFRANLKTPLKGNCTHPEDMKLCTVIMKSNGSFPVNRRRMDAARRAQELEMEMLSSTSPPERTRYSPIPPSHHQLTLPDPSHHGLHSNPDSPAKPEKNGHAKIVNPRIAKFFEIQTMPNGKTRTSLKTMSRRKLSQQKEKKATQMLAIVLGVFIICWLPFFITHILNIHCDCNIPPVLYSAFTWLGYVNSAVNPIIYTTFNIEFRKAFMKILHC

MPTP-treated monkey = MPTP-treated monkey model; cited from earlier work
[2] = molecular target: T2, primate D1A receptors expressed in C-6 glioma cells (Macaca mulatta, UniProt O77680); experiment: Adenylate cyclase (cAMP accumulation) assay in C-6-mD1A cell membranes; type: biochemical, rhesus macaque; details: for agonist activity / efficacy, in words: cloned primate D1A receptors in C-6 glioma cells, relative to dopamine
T2 construct: expressed in transfected cells; host or cells: C-6 glioma cells (C-6-mD1A), membranes
T2 sequence (O77680 whole entry): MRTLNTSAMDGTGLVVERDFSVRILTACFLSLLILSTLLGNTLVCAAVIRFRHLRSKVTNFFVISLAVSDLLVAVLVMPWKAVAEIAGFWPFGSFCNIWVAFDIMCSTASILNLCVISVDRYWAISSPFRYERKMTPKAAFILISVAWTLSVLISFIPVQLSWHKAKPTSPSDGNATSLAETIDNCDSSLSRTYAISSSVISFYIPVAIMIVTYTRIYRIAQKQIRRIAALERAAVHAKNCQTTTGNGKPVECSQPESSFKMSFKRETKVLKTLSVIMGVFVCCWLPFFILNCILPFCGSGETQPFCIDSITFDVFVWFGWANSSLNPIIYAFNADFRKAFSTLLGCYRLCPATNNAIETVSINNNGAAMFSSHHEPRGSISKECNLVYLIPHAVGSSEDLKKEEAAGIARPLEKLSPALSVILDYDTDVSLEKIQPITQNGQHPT
Protocol: Cell Cultures. C-6 glioma cells expressing the rhesus macaque D1 A receptor, (C-6-mD1A; Machida et al., 1992) were grown in DMEM-H medium containing 4,500 mg/L glucose, L-glutamine, 5% fetal bovine serum and […] G418 or 2 μg/mL puromycin. Cells were maintained in a humidified incubator at 37° C. with 5% CO2.
Membrane Preparation. Cells were grown in 75 cm^2 flasks until confluent. The cells were rinsed and lysed with 10 mL of ice cold hypoosmotic buffer (HOB) (5 mM Hepes, 2.5 mM MgCl2, 1 mM EDTA; pH 7.4) for 10 minutes at 4° C. Cells were then scraped from the flasks using a sterile cell scraper from Baxter (McGaw Park, Ill.). Flasks received a final rinse with 5 mL of HOB. The final volume of the cell suspension recovered from each flask was ca. 14 mL. Scraped membranes from several flasks were then combined. The combined cell suspension was homogenized (10 strokes), 14 mL at a time, using a 15 mL Wheaton Teflon-glass homogenizer. The cell homogenates were combined and spun at 43,000×g (Sorvall RC-5B/SS-34, Du Pont, Wilmington, Del.) at 4° C. for 20 min. The supernatant was removed, and the pellet was resuspended (10 strokes) in 1 mL of ice cold HOB for each original flask of cells homogenized. This homogenate was then spun again at 43,000×g at 4° C. for 20 min. The supernatant was removed and the final pellet was resuspended (10 strokes) in ice cold storage buffer (50 mM Hepes, 6 mM MgCl2, 1 mM EDTA; pH 7.4) to yield a final concentration of ca. 2.0 mg of protein/mL. Aliquots of the final homogenate were stored in microcentrifuge tubes at -80° C.
Adenylate cyclase assay in C-6mD1A cells. Frozen membranes were thawed and added to assay tubes (10 μg protein/tube) containing a prepared reaction mixture [100 TnM Hepes, (pH 7.4), 100 mM NaCl, 4 mM MgCl2, 2 mM EDTA, 500 μM isobutyl methylxanthine (IBMX), 0.01% ascorbic acid, 10 μM pargyline, 2 mM ATP, 5 μM GTP, 20 mM phosphocreatine, 5 units of creatine phosphokinase (CPK), 1 μM propranolol] and selected drugs. The final reaction volume was 100 μL.
Basal cAMP activity was determined by incubation of tissue in the reaction mixture with no drug added. Tubes were assayed in duplicate and, after a 15 min incubation at 30° C., the reaction was stopped by the addition of 500 μL of 0.1 N HCl. Tubes were vortexed briefly, and then spun in a BHG HermLe Z 230 M microcentrifuge for five min at 15,000×g to precipitate particulates.
Radioimmunoassay (RIA) of CAMP. The concentration of cAMP in each sample was determined with an RIA of acetylated cAMP, modified from that previously described. Iodination of cAMP was performed using a method reported by Patel and Linden. Assay buffer was 50 mM sodium acetate buffer with 0.1% sodium azide (pH 4.75). Standard curves of cAMP were prepared in buffer at concentrations of 2 to 500 fmol/assay tube. To improve assay sensitivity, all samples and standards were acetylated with 10 μl of a 2:1 solution of triethylamine:acetic anhydride. Samples were assayed in duplicate. Each assay tube (total volume 300 μL) contained 25 μL of each sample, 75 μL of buffer, 100 μL of primary antibody (sheep, anti-cAMP, 1:100,000 dilution with 1% BSA in buffer) and 100 μL of [^125 I]-cAMP (50,000 dpm/100 μL of buffer). Tubes were vortexed and stored at 4° C. overnight (approx. 18 h). Antibody-bound radioactivity was separated by the addition of 25 μL of BioMag rabbit, anti-goat IgG (Advanced Magnetics, Cambridge Mass.), followed by vortexing and incubation at 4° C. for 1 h. […]

D1 receptors = experiment: Adenylate cyclase activity (cAMP accumulation) in rat striatal homogenates; type: biochemical; details: rat striatum; for agonist activity / efficacy, in words: relative to dopamine
Protocol: Adenylate cyclase activity in rat striatum. The automated HPLC method of Schulz and Mailman was used to measure adenylate cyclase activity by separating cAMP from other labeled nucleotides. […] Triplicate determinations were performed for each drug concentration.
The reaction proceeded for 15 min at 30° C. and was terminated by the addition of 100 μL of 3% sodium dodecyl sulfate (SDS). […] Samples were centrifuged (10,000×g for 8-9 min), and the supernatants injected on an HPLC system (Waters Z-module or RCM 8×10 module equipped with a C18, 10 micron cartridge). […] The radioactivity in each fraction was determined by a flow-through radiation detector (Inus Systems, Tampa, Fla.) using Cerenkov counting. Sample recovery was based on UV measurement of total unlabeled CAMP peak areas quantified using PE Nelson (Cupertino, Calif.) Model 900 data collection modules and TurboChrom software.
Data analysis for adenylate cyclase studies. Data for each sample were expressed initially as pmol/mg/min cAMP. Baseline values of cAMP were subtracted from the total amount of cAMP produced in each drug condition. Data for each drug were expressed relative to the stimulation produced by 100 μM DA.

| Compound | D1 binding nH (Hill slope) ([1]; rat striatal homogenates) | intrinsic efficacy at D1 receptor, in words (D1 receptor) | agonist activity / efficacy, in words [2] | agonist activity / efficacy, in words (D1 receptors) | also measured |
| --- | --- | --- | --- | --- | --- |
| CN1CCc2cc(Cl)c(O)cc2[C@@H](c2ccccc2)C1 [SCH23390] | 1.05 ± 0.01 |  |  |  |  |
| Oc1cc2c(cc1O)[C@H]1c3ccccc3CN[C@@H]1CC2 [6aR,12bS] |  | high affinity full agonist at the D1 receptor |  |  |  |
| CN(C)CCCN1c2ccccc2Sc2ccc(Cl)cc21 [Chlorpromazine] |  |  |  |  | D2 binding nH (Hill slope) (D2 receptors; competition against 3H-spiperone, rat striatal homogenates): 0.93 ± 0.01 |
| NC[C@@H]1O[C@H](C23CC4CC(CC(C4)C2)C3)Cc2c1ccc(O)c2O [Example A-77636] |  |  |  |  | anti-parkinsonian effects (MPTP-treated monkey): exceptional anti-parkinsonian effects |
| C=CCN1CCc2c(cc(O)c(O)c2Cl)C(c2ccccc2)C1 (stereo not drawn) [SKF 82958] |  | not to have full intrinsic efficacy in preparations with decreased receptor reserve |  |  |  |
| Oc1ccc2c(c1O)Cc1cccc3c1C2CNC3 (racemic) [dinapsoline, (±)-8,9-dihydroxy-2,3,7,11b-tetrahydro-1H-naphtho[1,2,3-de] isoquinoline] | 0.66 |  | full efficacy; also recorded: full agonist activity; also recorded: full agonist relative to dopamine | full agonist activity; also recorded: full agonist relative to dopamine | EC50 ([2]; C-6-mD1 cells, average of two experiments in duplicate, read-out: EC50 in stimulating synthesis of cAMP via D1 receptors): ~30 nM; EC50 (D1 receptors; read-out: EC50 in stimulating synthesis of cAMP via D1 receptors): ~30 nM; slope of D1 competition curve, in words ([1]; FIG. 3): shallow competition curve; also recorded: shallower slopes; D1 affinity, in words ([1]; compared with dihydrexidine, rat striatal homogenates, FIG. 3): high affinity for dopamine D1 receptors; also recorded: almost identical affinity as dihydrexidine; D1 binding nH (Hill slope) ([1]; rat striatal homogenates, listed as (±)-4): 0.66 ± 0.01 |
| Oc1cc2c(cc1O)[C@H]1c3ccccc3CN[C@@H]1CC2 [dihydrexidine, (+)-trans-10,11-dihydroxy-5,6,6a,7,8,12b-hexahydrobenzo[a]phenanthridine] | 0.65 ± 0.01 |  | full efficacy; also recorded: full agonist relative to dopamine | full agonist relative to dopamine | anti-parkinsonian effects (MPTP-treated monkey): exceptional anti-parkinsonian effects; slope of D1 competition curve, in words ([1]; FIG. 3): shallower slopes; slope of D2 competition curve, in words (D2 receptors; FIG. 6, compared with chlorpromazine): shallower than for the prototypical D2 antagonist chlorpromazine |
| Oc1cc2c(cc1O)C(c1ccccc1)CNCC2 (single isomer, unassigned) [SKF 38393] | 0.75 ± 0.08 | generally lacked full intrinsic efficacy | partial agonist | partial agonist | agonist activity / efficacy, in words ([2]; listed as (+)-2): only of partial efficacy |
